Test results as given in US20240025906A1 (NEURON23, INC., priority 2022, published 2024).
Where two headings read alike, the source gives them in different places.

Experiments:
TYK2 JH2 = target: T1, TYK2 JH2 (Homo sapiens, UniProt P29597); assay: TYK2 JH2 binding assay (KINOMEscan KdELECT competitive binding); details: TYK2 JH2 domain
T1 construct: purchased DiscoverX (KINOMEscan KdELECT service); host or cells: E. coli BL21-derived (T7 phage display) or HEK-293
Outline: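 JH2-domain fragment, expressed as T7 phage tag in BL21-derived E. coli or DNA-tagged from HEK-293, competed with test compound against bead-immobilized biotinylated ligand in binding buffer (0.9% DMSO). 1 h shaking at room temperature; bound kinase eluted with 0.5 μM free ligand and quantified by qPCR. Kd from 11-point 3-fold dilutions.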

[1] = tested on: JAK1/TYK2 pSTAT5 (Tyr694/699) in THP-1 cell line; assay: IFNa-stimulated JAK1/TYK2 pSTAT5 (Tyr694/699) inhibition cellular assay, AlphaLISA; format: cell-based; details: Homo sapiens, THP-1 cells, AlphaLISA (Assay B)
Outline: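 pSTAT5 (Tyr694/699) in lysates quantified by AlphaLISA (615 nm) after 30 min IFNa stimulation (100 ng/mL stock) of THP-1 cells. The cells, 2e4 per well in HBSS, had first been exposed 1 h at 37° C. to eight 6-fold compound dilutions, 10000 down to 0.04 nM final. IC50 fitted by 4PL regression, bottom 0, Hill slope −1.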

[2] = DiscoverX KINOMEscan KdELECT (Assay A), read-out: Biochemical TYK2_DiscoverX_JH2_BND_Kd
[3] = IFNa-stimulated, read-out: Cellular_THP1_IFNa-pSTATS_TYK2
[4] = KINOMEscan KdELECT (Assay A), read-out: Biochemical TYK2_DiscoverX_JH2_BND_Kd
[5] = KINOMEscan KdELECT (Assay A), read-out: Biochemical TYK2_JH2_Kd
[6] = IFNa-stimulated, read-out: Cellular THP1_IFNa-pSTATS_IC50
[7] = IFNa-stimulated pSTAT5 (Tyr694/699), read-out: Cellular_THP1_IFNa-pSTATS_TYK2

T1 sequence (P29597 589-875 limits assumed): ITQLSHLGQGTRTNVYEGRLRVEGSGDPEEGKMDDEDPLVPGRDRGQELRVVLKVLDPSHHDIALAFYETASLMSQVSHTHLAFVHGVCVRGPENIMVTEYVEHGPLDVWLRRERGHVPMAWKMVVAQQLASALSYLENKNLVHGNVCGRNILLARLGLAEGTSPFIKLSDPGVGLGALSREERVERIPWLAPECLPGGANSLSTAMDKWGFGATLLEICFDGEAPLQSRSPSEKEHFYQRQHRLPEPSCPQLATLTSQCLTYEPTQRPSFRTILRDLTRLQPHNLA

IC50 [1, 3] | Kd (TYK2 JH2; [4]) | Compound | other results
≤ 500 nM | – | CNc1ncc(-c2nc3cc(OCC4CC4)ccc3o2)c2cc(NC(=O)C3CC3)ncc12 [Example 226, N-(5-(5-(cyclopropylmethoxy)benzo[d]oxazol-2-yl)-8-(methylamino)-2,7-naphthyridin-3-yl)cyclopropanecarboxamide] | Kd (TYK2 JH2; [2]): ≤ 100 nM
≤ 500 nM | – | CNc1ncc(-c2nc3cnccc3o2)c2cc(NC(=O)C3CC3)ncc12 [Example 356, N-(8-(methylamino)-5-(oxazolo[4,5-c]pyridin-2-yl)-2,7-naphthyridin-3-yl)cyclopropanecarboxamide] | Kd (TYK2 JH2; [2]): ≤ 100 nM
– | ≤ 100 nM | CNc1ncc(-c2nc3cc(OC)ccc3o2)c2cc(NC(=O)[C@@H]3C[C@H]3C)ncc12 [Example 1061, (1R,2R)-N-(5-(5-methoxybenzo[d]oxazol-2-yl)-8-(methylamino)-2,7-naphthyridin-3-yl)-2-methylcyclopropane-1-carboxamide] | IC50 [1, 7]: ≤ 500 nM
≤ 500 nM | ≤ 100 nM | CNc1ncc(C#Cc2ccc(O[C@H]3CCOC3)cc2)c2cc(NC(=O)C3CC3)ncc12 [Example 691, (S)—N-(8-(methylamino)-5-((4-((tetrahydrofuran-3-yl)oxy)phenyl)ethynyl)-2,7-naphthyridin-3-yl)cyclopropanecarboxamide] | –
≤ 500 nM | ≤ 100 nM | CNc1ncc(C#Cc2ccc(O[C@@H]3CCOC3)cc2)c2cc(NC(=O)C3CC3)ncc12 [Example 690, (R)—N-(8-(methylamino)-5-((4-((tetrahydrofuran-3-yl)oxy)phenyl)ethynyl)-2,7-naphthyridin-3-yl)cyclopropanecarboxamide] | –
≤ 500 nM | ≤ 100 nM | CNc1ncc(C#Cc2ccc3nc(C(F)F)n(C)c3c2)c2cc(NC(=O)C3CC3)ncc12 [Example 739, N-(5-((2-(difluoromethyl)-1-methyl-1H-benzo[d]imidazol-6-yl)ethynyl)-8-(methylamino)-2,7-naphthyridin-3-yl)cyclopropanecarboxamide] | –
≤ 500 nM | ≤ 100 nM | CCc1nc2ccc(C#Cc3cnc(NC)c4cnc(NC(=O)C5CC5)cc34)cc2n1C [Example 811, N-(5-((2-ethyl-1-methyl-1H-benzo[d]imidazol-6-yl)ethynyl)-8-(methylamino)-2,7-naphthyridin-3-yl)cyclopropanecarboxamide] | –
≤ 500 nM | ≤ 100 nM | CNc1ncc(C#Cc2ccc3cc(COC)n(C)c3c2)c2cc(NC(=O)C3CC3)ncc12 [Example 716, N-(5-((2-(methoxymethyl)-1-methyl-1H-indol-6-yl)ethynyl)-8-(methylamino)-2,7-naphthyridin-3-yl)cyclopropanecarboxamide] | –
≤ 500 nM | – | [2H]C([2H])([2H])Nc1ncc(-c2nc3cc(N4CCO[C@@H](C)C4)ccc3o2)c2cc(NC(=O)[C@H]3C[C@H]3C)ncc12 [Example 440, (1S,2R)-2-methyl-N-(8-((methyl-d3)amino)-5-(5-((S)-2-methylmorpholino)benzo[d]oxazol-2-yl)-2,7-naphthyridin-3-yl)cyclopropane-1-carboxamide] | Kd (TYK2 JH2; [2]): ≤ 100 nM
≤ 500 nM | ≤ 100 nM | CNc1ncc(C#Cc2ccc(OC(C)C)cc2)c2cc(NC(=O)C3CC3)ncc12 [Example 634, N-(5-((4-isopropoxyphenyl)ethynyl)-8-(methylamino)-2,7-naphthyridin-3-yl)cyclopropanecarboxamide] | –
> 500 nM | – | CNc1ncc(-c2nc3ccc(N4C[C@@H](C)O[C@@H](C)C4)cn3n2)c2cc(N)ncc12 [Example 553, 4-(6-((2R,6S)-2,6-dimethylmorpholino)-[1,2,4]triazolo[1,5-a]pyridin-2-yl)-N^1-methyl-2,7-naphthyridine-1,6-diamine] | Kd (TYK2 JH2; [2]): ≤ 100 nM
≤ 500 nM | ≤ 100 nM | CNc1ncc(C#Cc2ccncc2Cl)c2cc(NC(=O)C3CC3)ncc12 [Example 985, N-[5-[2-(3-chloro-4-pyridyl)ethynyl]-8-(methylamino)-2,7-naphthyridin-3-yl]cyclopropanecarboxamide] | –
> 500 nM | ≤ 100 nM | CNc1ncc(C#Cc2ccc3nnn(C)c3c2)c2cc(NC(=O)C3(F)CC3)ncc12 [Example 759, 1-fluoro-N-(5-((1-methyl-1H-benzo[d][1,2,3]triazol-6-yl)ethynyl)-8-(methylamino)-2,7-naphthyridin-3-yl)cyclopropane-1-carboxamide] | –

Second part, the compound before the results:

Compound | IC50 [1, 3] | Kd (TYK2 JH2; [4]) | other results
CCNc1ncc(C#Cc2ccc(OC)cn2)c2cc(NC(=O)C3CC3)ncc12 [Example 594, N-(8-(ethylamino)-5-((5-methoxypyridin-2-yl)ethynyl)-2,7-naphthyridin-3-yl)cyclopropanecarboxamide] | ≤ 500 nM | ≤ 100 nM | –
CNc1ncc(-c2nc3ccc(N4CCC4)cn3n2)c2cc(NC(=O)C3CC3)ncc12 [Example 474, N-(5-(6-(azetidin-1-yl)-[1,2,4]triazolo[1,5-a]pyridin-2-yl)-8-(methylamino)-2,7-naphthyridin-3-yl)cyclopropanecarboxamide] | ≤ 500 nM | – | Kd (TYK2 JH2; [2]): ≤ 100 nM
CNc1ncc(-c2cnsc2)c2cc(NC(=O)C3CC3)ncc12 [Example 83, N-(5-(isothiazol-4-yl)-8-(methylamino)-2,7-naphthyridin-3-yl)cyclopropanecarboxamide] | – | – | Kd (TYK2 JH2; [5]): ≤ 100 nM; IC50 [1, 6]: > 500 nM
CNc1ncc(C#Cc2ccc(Cl)cn2)c2cc(NC(=O)C3CC3)ncc12 [Example 995, N-(5-((5-chloropyridin-2-yl)ethynyl)-8-(methylamino)-2,7-naphthyridin-3-yl)cyclopropanecarboxamide] | – | ≤ 100 nM | IC50 [1, 7]: ≤ 500 nM
CNc1ncc(-c2nc3c(F)cccc3o2)c2cc(NC(=O)C3CC3)ncc12 [Example 184, N-(5-(4-fluorobenzo[d]oxazol-2-yl)-8-(methylamino)-2,7-naphthyridin-3-yl)cyclopropanecarboxamide] | – | – | Kd (TYK2 JH2; [5]): ≤ 100 nM; IC50 [1, 6]: ≤ 500 nM
CNc1ncc(-c2ccn(CC#N)n2)c2cc(NC(=O)C3CC3)ncc12 [Example 87, N-(5-(1-(cyanomethyl)-1H-pyrazol-3-yl)-8-(methylamino)-2,7-naphthyridin-3-yl)cyclopropanecarboxamide] | – | – | Kd (TYK2 JH2; [5]): ≤ 100 nM; IC50 [1, 6]: > 500 nM
CNc1ncc(C#Cc2ccc(OC)cc2)c2cc(NC(=O)[C@@H]3C[C@@H]3F)ncc12 [Example 752, (1S,2S)-2-fluoro-N-(5-((4-methoxyphenyl)ethynyl)-8-(methylamino)-2,7-naphthyridin-3-yl)cyclopropane-1-carboxamide] | ≤ 500 nM | ≤ 100 nM | –
CNc1ncc(-c2nc3cc(OC4CNC4)ccc3o2)c2cc(NC(=O)C3CC3)ncc12 [Example 197, N-(5-(5-(azetidin-3-yloxy)benzo[d]oxazol-2-yl)-8-(methylamino)-2,7-naphthyridin-3-yl)cyclopropanecarboxamide] | ≤ 500 nM | – | Kd (TYK2 JH2; [2]): ≤ 100 nM
CNc1nc(C)cc2cc(NC(=O)C3CC3)ncc12 [Example 163, N-(6-methyl-8-(methylamino)-2,7-naphthyridin-3-yl)cyclopropanecarboxamide] | – | – | Kd (TYK2 JH2; [5]): 100 to 1000 nM; IC50 [1, 6]: > 500 nM
CNc1ncc(C#Cc2ccc3ncn(C4CC4)c3c2)c2cc(NC(=O)C3CC3)ncc12 [Example 625, N-(5-((1-cyclopropyl-1H-benzo[d]imidazol-6-yl)ethynyl)-8-(methylamino)-2,7-naphthyridin-3-yl)cyclopropanecarboxamide] | ≤ 500 nM | ≤ 100 nM | –
CNc1ncc(C#Cc2ccc(NC(C)=O)cc2)c2cc(NC(=O)C3CC3)ncc12 [Example 670, N-(5-((4-acetamidophenyl)ethynyl)-8-(methylamino)-2,7-naphthyridin-3-yl)cyclopropanecarboxamide] | ≤ 500 nM | ≤ 100 nM | –
CNc1ncc(-c2nc3cc(OC)ccc3o2)c2cc(NC(=O)C3(F)CC3)ncc12 [Example 381, 1-fluoro-N-(5-(5-methoxybenzo[d]oxazol-2-yl)-8-(methylamino)-2,7-naphthyridin-3-yl)cyclopropane-1-carboxamide] | > 500 nM | – | Kd (TYK2 JH2; [2]): ≤ 100 nM
CNc1ncc(C#Cc2ccn3ncnc3c2)c2cc(NC(=O)C3CC3)ncc12 [Example 609, N-(5-([1,2,4]triazolo[1,5-a]pyridin-7-ylethynyl)-8-(methylamino)-2,7-naphthyridin-3-yl)cyclopropanecarboxamide] | ≤ 500 nM | ≤ 100 nM | –
CNc1ncc(C#Cc2ccc3nc(C(F)F)n(C)c3c2)c2cc(NC(=O)[C@H]3C[C@H]3C)ncc12 [Example 775, (1S,2R)—N-(5-((2-(difluoromethyl)-1-methyl-1H-benzo[d]imidazol-6-yl)ethynyl)-8-(methylamino)-2,7-naphthyridin-3-yl)-2-methylcyclopropane-1-carboxamide] | ≤ 500 nM | ≤ 100 nM | –
CNc1ncc(C#Cc2ccc3nnn(C4CC4)c3c2)c2cc(NC(=O)C3CC3)ncc12 [Example 687, N-(5-((1-cyclopropyl-1H-benzo[d][1,2,3]triazol-6-yl)ethynyl)-8-(methylimino)-2,7-naphthyridin-3-yl)cyclopropanecarboxamide] | ≤ 500 nM | ≤ 100 nM | –
